Reference: US12171775B2, “Use of cladribine for treating autoimmune neuromuscular disease” (priority 2017, dated 2024)

How the values were obtained:
[1] = system: patient with acetylcholine receptor antibody positive myasthenia gravis; test: Treatment of a person suffering from myasthenia gravis with cladribine (single patient; clinical rating scales and tolerability); type: in vivo, human
Description: A patient with existing, acetylcholine receptor antibody positive myasthenia gravis (MG) diagnosed.
They received 20 mg cladribine, administered by subcutaneous injection of 2.5 mg cladribine in 2.5 ml in each of four limbs (total 10 mg), on each of two consecutive days. This total dose of 20 mg is markedly less than the total doses of 200-400 mg given in recent multiple sclerosis trials. Clinical assessment using two scales was performed one week before initiation of cladribine administration, and three months after first cladribine administration. The treatment with oral steroids and pyridostigmine remained stable over observation period.
The two scales used were:
• Myasthenia Gravis Composite Scale (Burns T et al. Neurology 74:1434-40 (2010) • Myasthenia Gravis Activities of Daily Living (Wolfe G et al. Neurology 52: 1487-89 (1999)

[2] = molecular target: A2A (adenosine receptor class 2a) (Homo sapiens, UniProt P29274); details: cited from earlier work
[3] = system: human lymphocytes; details: phosphorylation by CK blocked, lymphocyte death does not occur; cited from earlier work
[4] = system: multiple sclerosis (MS) patients; details: 3.5 mg/kg and 5.25 mg/kg by oral tablets; cited from earlier work
[5] = system: patient with IgM associated inflammatory peripheral neuropathy; details: intravenous, approximately 100 mg cumulative dose; cited from earlier work
[6] = 3 months post vs pre-cladribine

Sequence of A2A (adenosine receptor class 2a) (P29274 whole entry): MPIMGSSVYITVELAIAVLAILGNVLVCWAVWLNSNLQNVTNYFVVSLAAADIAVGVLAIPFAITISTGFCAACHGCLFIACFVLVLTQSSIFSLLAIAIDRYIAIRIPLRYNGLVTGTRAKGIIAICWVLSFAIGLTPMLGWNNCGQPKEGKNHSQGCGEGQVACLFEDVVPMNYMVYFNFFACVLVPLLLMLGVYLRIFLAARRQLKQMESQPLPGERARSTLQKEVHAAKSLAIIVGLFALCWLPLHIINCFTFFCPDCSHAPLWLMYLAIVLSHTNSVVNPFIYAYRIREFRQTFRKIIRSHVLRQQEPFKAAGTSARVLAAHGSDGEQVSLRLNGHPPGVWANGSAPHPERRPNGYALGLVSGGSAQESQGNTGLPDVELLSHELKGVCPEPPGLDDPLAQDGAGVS

Cn1cnc([N+](=O)[O-])c1Sc1ncnc2nc[nH]c12 [azathioprine]
Tolerability of prior azathioprine treatment ([1]; same MG patient, before cladribine, stopped after 1 week of treatment): severe intolerance due to nausea and vomiting

Nc1nc(Cl)nc2c1ncn2[C@H]1C[C@H](O)[C@@H](CO)O1 [cladribine, 2-chloro-2′-deoxyadenosine]
MG Composite Scale score, 3 months post-cladribine ([1]; 20 mg total s.c. (10 mg on each of two consecutive days), 3 months after first administration, pre-cladribine score 31): 6 | MG Activities of Daily Living score, 3 months post-cladribine ([1]; 20 mg total s.c., 3 months after first administration, pre-cladribine score 19): 8 | Adverse events considered possible side effects of cladribine ([1]; 20 mg total s.c., MG patient): did not experience any adverse events | Transient worsening of signs after treatment initiation ([1]; 20 mg total s.c., MG patient): did not produce a transient worsening of signs | Improvement on the MG Activities of Daily Living scale [1, 6]: 11 point | Improvement on the MG Composite Scale [1, 6]: 25 point | Durability of clinical improvement after the 3 month assessment ([1]; MG patient, led to gradual withdrawal of baseline treatment): sustained over the following seven months | Period of beneficial effects on the disease without frequent retreatment ([1]; after a short period of treatment): over 10 months | Affinity at A2A receptors [2]: high affinity | Induced cytokine production [3]: decreased | Clinical outcome in MS (relapses, disability, MRI disease activity) [4]: fewer relapses, less disability, and less disease activity | Clinical outcome in IgM associated inflammatory peripheral neuropathy [5]: symptomatic improvement and reduced levels of pathogenic antibodies
